Data taken from US11633416B1, “Oral formulations of CD73 compounds” (ARCUS BIOSCIENCES, INC., priority 2020, dated 2023).
Like-named read-outs stand apart in the source and are kept apart here.

Experiment: Oral exposure in cynomolgus monkeys, compound alone or with excipient in capsules; plasma by LC-MS/MS
Assay type: in vivo
Settings: enteric capsule; for MRT inf: read-out: MRT0-∞
From the text: The influence of different excipients on the bioavailability of Compound (Ia), Compound 2 and Compound 3 in cynomolgus monkeys was investigated. The excipients tested were sodium phytate, sodium citrate, sodium EDTA, cyclodextrin, sodium taurocholate, sodium polystyrene sulfate, sodium caprate, sodium phosphate, carbomer 971P and palmitoyl carnitine chloride. Generally, an appropriate quantity (as indicated in Table 1) of Compound (Ia), Compound 2 or Compound 3 and an excipient were mixed to homogeneity and transferred to capsules for dosing. In one example, Compound (Ia) (500 mg assay, 1.063 correction factor applied for to account for purity) and 2.75 g of sodium phytate (Sigma) were combined in a mortar and pestle. The mixture was ground to homogeneity then 530 mg of the white powder was transferred to enteric capsules (Size 0) prior to dosing.
[…] Compound (Ia), Compound 2 or Compound 3, either alone, or with excipient, in an enteric capsule was administered via an oral pet piller. Blood samples were collected from a peripheral vessel at designated time points, and centrifuged to obtain plasma.
Plasma samples obtained at each time point from the subjects were prepared by protein precipitation. An aliquot of 50 μL sample was added with 150 μL acetonitrile containing an internal standard ([[[(2R,3S,4R,5R)-5-[6-chloro-4-[[(1S)-2,2,2-trideuterio-1-(2-fluorophenyl)ethyl]amino]pyrazolo[3,4-b]pyridin-1-yl]-3,4-dihydroxyoxolan-2-yl]-dideuteriomethoxy]-hydroxyphosphoryl]methylphosphonic acid, 200 ng/mL in Acetonitrile). The mixture was vortexed for 15 min and then centrifuged at 4500 rpm for 15 min at 4° C. (Sorvall Legend XTR centrifuge, Thermo Scientific, Langenselbold, Germany). 80 μL of the resulting supernatant was transferred into a new plate and mixed with 160 μL water followed by LC-MS/MS analysis.
• API 4000 mass spectrometer (Applied Biosystems, Foster City, Calif.) • Shimadzu Nexera X^2 UHPLC System (Shimadzu Scientific Instruments, Canby, Oreg.) Column: SHISEIDO CAPCELL PAK INERT ADME S3 (2.00 mm×50 mm, Part No. 79001) Mobile Phase A: 8.6 mM Triethylamine, 100 mM HFIP (1,1,1,3,3,3-Hexafluoro-2-propanol) in Water Mobile Phase B: 8.6 mM Triethylamine, and 100 mM HFIP in [Acetonitrile:water (95:5, v/v) Needle wash (weak & strong): Acetone:MeCN:Water (80:20:20, v/v/v) Flow Rate: 0.50 mL/min HPLC Gradient:
• Ionization Mode: Electrospray (ESI) • Detection Mode: Negative MRM (Q1/Q3 transitions: m/z 579.0/157.0 for Compound (Ia) or Compound 3; m/z 584.0/157.0 for Internal Standard); (Q1/Q3 transitions m/z 562.2/157.0 for Compound 2; m/z 584.0/157.0 for Internal Standard)

[1] = male, cynomolgus monkey, plasma, po, 50 mg, Table 2: oral, dose 50 mg, + 275 mg sodium phytate
[2] = male, cynomolgus monkey, plasma, po, 50 mg, Table 2: oral, dose 50 mg, neat
[3] = oral, dose 50 mg, with 275 mg sodium phytate (Sigma-Aldrich, ≥5 mol sodium/mol), fasted

- Exposure Enhancement (Table 2: oral, dose 50 mg, + 275 mg sodium phytate versus neat): 9.1-fold
- AUC(0-inf) (male, cynomolgus monkey, plasma, po, 10 mg, with 195 mg sodium citrate, 6 mg SDS, fasted): 1940 ng·h/mL
- Cmax (male, cynomolgus monkey, plasma, po, 10 mg, oral, dose 10 mg, with 195 mg sodium citrate, 6 mg SDS, fasted, read-out: Cmax): 286 ng/mL
- AUC(0-inf) [1]: 122000 ng·h/mL
- AUC(0-t) [1]: 88000 ng·h/mL
- Tmax [1]: 3 h
- Cmax (male, cynomolgus monkey, plasma, po, 50 mg, Table 2: oral, dose 50 mg, + 275 mg sodium phytate, read-out: Cmax): 3680 ng/mL
- MRT inf [1]: 35.8 h
- AUC(0-inf) [2]: 13400 ng·h/mL
- AUC(0-t) [2]: 10300 ng·h/mL
- Tmax [2]: 1.75 h
- Cmax (male, cynomolgus monkey, plasma, po, 50 mg, Table 2: oral, dose 50 mg, neat, read-out: Cmax): 631 ng/mL
- MRT inf [2]: 29.2 h
- AUC(0-inf) (male, cynomolgus monkey, plasma, po, 50 mg, neat, fasted): 13400 ng·h/mL
- AUC(0-inf) (male, cynomolgus monkey, plasma, po, 50 mg, with 25 mg sodium taurocholate, fasted): 9300 ng·h/mL
- AUC(0-inf) (male, cynomolgus monkey, plasma, po, 50 mg, with 50 mg sodium phytate (Sigma-Aldrich), fasted): 59700 ng·h/mL
- AUC(0-inf) (male, cynomolgus monkey, plasma, po, 50 mg, with 100 mg Na-EDTA, fasted): 154000 ng·h/mL
- AUC(0-inf) (male, cynomolgus monkey, plasma, po, 50 mg, with 100 mg cyclodextrin, fasted): 8230 ng·h/mL
- AUC(0-inf) (male, cynomolgus monkey, plasma, po, 50 mg, with 100 mg palmitoyl carnitine chloride, fasted): 43400 ng·h/mL
- AUC(0-inf) (male, cynomolgus monkey, plasma, po, 50 mg, with 195 mg sodium citrate, 3 mg SDS, fasted): 22200 ng·h/mL
- AUC(0-inf) (male, cynomolgus monkey, plasma, po, 50 mg, with 195 mg sodium citrate, 6 mg SDS, non-fasted animal): 16500 ng·h/mL
- AUC(0-inf) (male, cynomolgus monkey, plasma, po, 50 mg, with 195 mg sodium citrate, 6 mg sodium dodecyl sulfate (SDS), fasted): 38300 ng·h/mL
- AUC(0-inf) (male, cynomolgus monkey, plasma, po, 50 mg, with 227.5 mg sodium caprate, fasted): 20300 ng·h/mL
- AUC(0-inf) (male, cynomolgus monkey, plasma, po, 50 mg, with 275 mg sodium phytate (Sigma-Aldrich, ≥5 mol sodium/mol), fasted): 109000 ng·h/mL
- AUC(0-inf) (male, cynomolgus monkey, plasma, po, 50 mg, with 275 mg sodium phytate, dodecasodium, fasted): 69400 ng·h/mL
- AUC(0-inf) (male, cynomolgus monkey, plasma, po, 50 mg, with 275 mg sodium phytate, hexasodium, fasted): 152000 ng·h/mL
- AUC(0-inf) (male, cynomolgus monkey, plasma, po, 50 mg, with 325 mg sodium polystyrene sulfate, fasted): 41400 ng·h/mL
- AUC(0-inf) (male, cynomolgus monkey, plasma, po, 50 mg, with 400 mg sodium phosphate, fasted): 20500 ng·h/mL
- AUC(0-inf) (male, cynomolgus monkey, plasma, po, 50 mg, with 7% w/w carbomer 971P, fasted): 41300 ng·h/mL
- Cmax (male, cynomolgus monkey, plasma, po, 50 mg, oral, dose 50 mg, neat, fasted, read-out: Cmax): 631 ng/mL
- Cmax (male, cynomolgus monkey, plasma, po, 50 mg, oral, dose 50 mg, with 25 mg sodium taurocholate, fasted, read-out: Cmax): 455 ng/mL
- Cmax (male, cynomolgus monkey, plasma, po, 50 mg, oral, dose 50 mg, with 50 mg sodium phytate (Sigma-Aldrich), fasted, read-out: Cmax): 1650 ng/mL
- Cmax (male, cynomolgus monkey, plasma, po, 50 mg, oral, dose 50 mg, with 100 mg Na-EDTA, fasted, read-out: Cmax): 6840 ng/mL
- Cmax (male, cynomolgus monkey, plasma, po, 50 mg, oral, dose 50 mg, with 100 mg cyclodextrin, fasted, read-out: Cmax): 526 ng/mL
- Cmax (male, cynomolgus monkey, plasma, po, 50 mg, oral, dose 50 mg, with 100 mg palmitoyl carnitine chloride, fasted, read-out: Cmax): 3660 ng/mL
- Cmax (male, cynomolgus monkey, plasma, po, 50 mg, oral, dose 50 mg, with 195 mg sodium citrate, 3 mg SDS, fasted, read-out: Cmax): 922 ng/mL
- Cmax (male, cynomolgus monkey, plasma, po, 50 mg, oral, dose 50 mg, with 195 mg sodium citrate, 6 mg SDS, non-fasted animal, read-out: Cmax): 863 ng/mL
- Cmax (male, cynomolgus monkey, plasma, po, 50 mg, oral, dose 50 mg, with 195 mg sodium citrate, 6 mg sodium dodecyl sulfate (SDS), fasted, read-out: Cmax): 1520 ng/mL
- Cmax (male, cynomolgus monkey, plasma, po, 50 mg, oral, dose 50 mg, with 227.5 mg sodium caprate, fasted, read-out: Cmax): 912 ng/mL
- Cmax (male, cynomolgus monkey, plasma, po, 50 mg, oral, dose 50 mg, with 275 mg sodium phytate (Sigma-Aldrich, ≥5 mol sodium/mol), fasted, read-out: Cmax): 3570 ng/mL
- Cmax (male, cynomolgus monkey, plasma, po, 50 mg, oral, dose 50 mg, with 275 mg sodium phytate, dodecasodium, fasted, read-out: Cmax): 2970 ng/mL
- Cmax (male, cynomolgus monkey, plasma, po, 50 mg, oral, dose 50 mg, with 275 mg sodium phytate, hexasodium, fasted, read-out: Cmax): 4440 ng/mL
- Cmax (male, cynomolgus monkey, plasma, po, 50 mg, oral, dose 50 mg, with 325 mg sodium polystyrene sulfate, fasted, read-out: Cmax): 1420 ng/mL
- Cmax (male, cynomolgus monkey, plasma, po, 50 mg, oral, dose 50 mg, with 400 mg sodium phosphate, fasted, read-out: Cmax): 700 ng/mL
- Cmax (male, cynomolgus monkey, plasma, po, 50 mg, oral, dose 50 mg, with 7% w/w carbomer 971P, fasted, read-out: Cmax): 1480 ng/mL
- AUC(0-inf) (male, cynomolgus monkey, plasma, po, 100 mg, with 275 mg sodium phytate (Sigma-Aldrich), fasted): 237000 ng·h/mL
- Cmax (male, cynomolgus monkey, plasma, po, 100 mg, oral, dose 100 mg, with 275 mg sodium phytate (Sigma-Aldrich), fasted, read-out: Cmax): 5760 ng/mL
- Exposure Enhancement (oral, dose 50 mg, with 50 mg sodium phytate (Sigma-Aldrich), relative to 50 mg Ia ( 3Na) without absorption enhancer): 4.5-fold^b
- Exposure Enhancement (oral, dose 50 mg, with 100 mg Na-EDTA, relative to 50 mg Ia ( 3Na) without absorption enhancer): 11.5-fold^b
- Exposure Enhancement (oral, dose 50 mg, with 100 mg palmitoyl carnitine chloride, relative to 50 mg Ia ( 3Na) without absorption enhancer): 3.2-fold^b
- Exposure Enhancement (oral, dose 50 mg, with 195 mg sodium citrate, 3 mg SDS, relative to 50 mg Ia ( 3Na) neat): 1.7-fold
- Exposure Enhancement (oral, dose 50 mg, with 195 mg sodium citrate, 6 mg SDS, non-fasted animal, relative to 50 mg Ia ( 3Na) without absorption enhancer): 1.2-fold^b
- Exposure Enhancement (oral, dose 50 mg, with 195 mg sodium citrate, 6 mg SDS, relative to 50 mg Ia ( 3Na) without absorption enhancer): 2.9-fold^b
- Exposure Enhancement (oral, dose 50 mg, with 227.5 mg sodium caprate, relative to 50 mg Ia ( 3Na) without absorption enhancer): 1.5-fold^b
- Exposure Enhancement (oral, dose 50 mg, with 275 mg sodium phytate (Sigma-Aldrich), relative to 50 mg Ia ( 3Na) without absorption enhancer): 9.1-fold^b
- Exposure Enhancement (oral, dose 50 mg, with 275 mg sodium phytate (Sigma-Aldrich), relative to 50 mg Ia ( 3Na) without absorption enhancer, listed as Ia ( 3Na)): 8.1-fold^b
- AUC0-∞ [3]: 122,000 h*ng/mL
- Cmax [3]: 3,680 ng/mL
- Exposure Enhancement (oral, dose 50 mg, with 275 mg sodium phytate, dodecasodium, relative to 50 mg Ia ( 3Na) without absorption enhancer): 5.2-fold^b
- Exposure Enhancement (oral, dose 50 mg, with 275 mg sodium phytate, hexasodium, relative to 50 mg Ia ( 3Na) without absorption enhancer): 11.4-fold^b
- Exposure Enhancement (oral, dose 50 mg, with 325 mg sodium polystyrene sulfate, relative to 50 mg Ia ( 3Na) without absorption enhancer): 3.1-fold^b
- Exposure Enhancement (oral, dose 50 mg, with 400 mg sodium phosphate, relative to 50 mg Ia ( 3Na) without absorption enhancer): 1.9-fold^b
- Exposure Enhancement (oral, dose 50 mg, with 7% w/w carbomer 971P, relative to 50 mg Ia ( 3Na) without absorption enhancer): 3.1-fold^b
Compound: C[C@H](Nc1cc(Cl)nc2c1cnn2[C@@H]1O[C@H](COP(=O)(O)CP(=O)(O)O)[C@@H](O)[C@H]1O)c1ccccc1F [Ia (•3Na), (((((2R,3S,4R,5R)-5-(6-chloro-4-(((S)-1-(2-fluorophenyl)ethyl)amino)-1H-pyrazolo[3,4-b]pyridin-1-yl)-3,4-dihydroxytetrahydrofuran-2-yl)methoxy)(hydroxy)phosphoryl)methyl)phosphonic acid]
